According to patent publication US20260083704A1, “LXR MODULATORS WITH BICYCLIC CORE MOIETY FOR TREATING DYSLIPIDEMIAS” (OrsoBio, Inc., priority 2022, published 2026):

Columns and labels:
[1] = Pharmacokinetics in mice after single oral dosing (blood/plasma and liver exposure); type: in vivo; settings: 20 mg/kg single oral dose
Procedure: The pharmacokinetics of the compounds was assessed in mice after single dosing and oral administrations. Blood/plasma and liver exposure was measured via LC-MS.
The study design was as follows: • Animals: C57/bl6/J (Janvier) males • Diet: standard rodent chow • Dose: 20 mg/kg • Animal handling: animals were withdrawn from food at least 12 h before administration • Design: single dose oral administration, n=3 animals per group • Sacrifice: at stated time point (4, 12 or 24 h) after administration • Bioanalytics: LC-MS of liver and blood/plasma samples

[2] = target: T1, LXRα (Homo sapiens, UniProt Q13133); assay: Biochemical binding assay LXRα; settings: mean ± SD; read-out: LXα binding EC50
T1 sequence (Q13133 1-447): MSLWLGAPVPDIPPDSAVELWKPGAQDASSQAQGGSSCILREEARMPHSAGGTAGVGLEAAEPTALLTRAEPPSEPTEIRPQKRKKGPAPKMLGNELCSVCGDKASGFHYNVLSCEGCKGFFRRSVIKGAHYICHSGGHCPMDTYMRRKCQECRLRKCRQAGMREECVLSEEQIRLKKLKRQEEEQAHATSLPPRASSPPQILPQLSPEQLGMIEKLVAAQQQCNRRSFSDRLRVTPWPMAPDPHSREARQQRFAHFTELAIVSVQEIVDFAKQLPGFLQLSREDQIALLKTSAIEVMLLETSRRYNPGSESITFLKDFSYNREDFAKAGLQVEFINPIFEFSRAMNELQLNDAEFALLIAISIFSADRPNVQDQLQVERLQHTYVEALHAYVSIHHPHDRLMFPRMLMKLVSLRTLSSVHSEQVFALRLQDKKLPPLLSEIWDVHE
Procedure: (§1) The potencies of Compound 21/3 and its analog, Compound pre-6/3, against LXRα and LXRβ were evaluated in biochemical binding assays, cellular mammalian two-hybrid (M2H) interaction assays evaluating nuclear receptor co-repressor (NCOR) recruitment, and cellular reporter assays evaluating transcriptional activity (Table 5).

[3] = system: ABCA1 reporter in HT-29; assay: HT-29 ABCA1 reporter assay; type: cell-based; settings: Homo sapiens; HT-29, mean ± SD
Procedure: as §1

[4] = target: T2, LXRα (Homo sapiens, UniProt Q13133); assay: LXR Gal4 reporter transient transfection assay (mammalian two-hybrid, HEK293), LXRα; type: cell-based; settings: HEK293, NCOR recruitment, mean ± SD; read-out: HEK293 LXRα/NCOR recruitment (M2H) EC50
T2 construct: full length (FL) proteins of LXRα (amino acids 1-447); NP005684
Procedure: LXRα and LXRβ activity status was determined via detection of interaction with coactivator and corepressor proteins in mammalian two-hybrid experiments (M2H). For this, via transient transfection the full length (FL) proteins of LXRα (amino acids 1-447; NP005684; SEQ ID NO:1) or LXRβ-(amino acids 1-461; NP009052; SEQ ID NO:2) or the ligand-binding domains (LBD) of LXRα (amino acids 155-447 SEQ ID NO:3) or LXRβ (amino acids 156-461; SEQ ID NO:4) were expressed from pCMV-AD (Stratagene) as fusions to the transcriptional activation domain of NFkB. As cofactors, domains of either the steroid receptor coactivator 1 (SRC1; amino acids 552-887; SEQ ID NO:5) or of the corepressor NCoR (amino acids 1906-2312; NP006302; SEQ ID NO:6) were expressed as fusions to the DNA binding domain of the yeast transcription factor GAL4 (from pCMV-BD; Stratagene). Interaction was monitored via activation of a coexpressed Firefly Luciferase Reporter gene under control of a promoter containing repetitive GAL4 response elements (vector pFRLuc; Stratagene). Transfection efficiency was controlled via cotransfection of constitutively active pRL-CMV Renilla reniformis luciferase reporter (Promega). HEK293 cells were grown in minimum essential medium (MEM) with 2 mM L-glutamine and Earle's balanced salt solution supplemented with 8.3% fetal bovine serum, 0.1 mM non-essential amino acids, 1 mM sodium pyruvate, at 37° C. in 5% CO2. 3.5×10^4 cells/well were plated in 96-well cell culture plates in growth medium supplemented with 8.3% fetal bovine serum for 16-20 h to ˜90% confluency. For transfection, medium was taken off and LXR and cofactor expressing plasmids as well as the reporter plasmids are added in 30 μL OPTIMEM/well including polyethylene-imine (PEI) as vehicle. Typical amounts of plasmids transfected/well: pCMV-AD-LXR (5 ng), pCMV-BD-cofactor (5 ng), pFR-Luc (100 ng), pRL-CMV (0.5 ng). Compound stocks were prepared in DMSO, prediluted in MEM to a total volume of 120 μL, and added 4 h after addition of the transfection mixture (final vehicle concentration not exceeding 0.2%). Cells were incubated for additional 16 h, lysed for 10 min in 1×Passive Lysis Buffer (Promega) and Firefly and Renilla luciferase activities were measured sequentially in the same cell extract using buffers containing D-luciferine and coelenterazine, respectively. Measurements of luminescence were done in a BMG-luminometer.
as §1

[5] = target: T3, LXRβ (Homo sapiens, UniProt P55055); assay: Biochemical binding assay LXRβ; settings: mean ± SD
T3 sequence (P55055 1-460): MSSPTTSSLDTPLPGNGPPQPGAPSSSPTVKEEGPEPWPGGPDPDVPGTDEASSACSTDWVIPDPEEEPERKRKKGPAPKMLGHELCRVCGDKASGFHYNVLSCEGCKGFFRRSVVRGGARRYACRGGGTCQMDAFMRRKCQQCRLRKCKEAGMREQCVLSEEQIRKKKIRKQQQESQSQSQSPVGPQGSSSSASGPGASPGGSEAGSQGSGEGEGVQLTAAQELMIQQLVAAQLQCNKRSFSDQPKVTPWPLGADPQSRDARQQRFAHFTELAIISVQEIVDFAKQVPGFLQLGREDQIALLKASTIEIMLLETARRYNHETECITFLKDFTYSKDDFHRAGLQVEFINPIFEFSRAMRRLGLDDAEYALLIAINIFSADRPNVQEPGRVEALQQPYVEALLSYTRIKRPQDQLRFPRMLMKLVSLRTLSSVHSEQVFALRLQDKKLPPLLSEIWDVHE
Procedure: as §1

[6] = target: LXRβ (Homo sapiens, UniProt P55055); assay: LXR Gal4 reporter transient transfection assay (mammalian two-hybrid, HEK293), LXRβ; type: cell-based; settings: HEK293, NCOR recruitment, mean ± SD; read-out: HEK293 LXRβ/NCOR recruitment (M2H) EC50
In short: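 Mammalian two-hybrid read-out of LXR–coactivator (SRC1) or corepressor (NCoR) interaction: firefly luciferase under GAL4 response elements, normalised via Renilla co-transfection. LXRα/β full-length or LBD fusions expressed transiently in HEK293; compounds (final DMSO ≤0.2%) given 4 h after transfection for 16 h before lysis.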
Target sequence in this assay (O75376 1906-2312 partner, one chain of several): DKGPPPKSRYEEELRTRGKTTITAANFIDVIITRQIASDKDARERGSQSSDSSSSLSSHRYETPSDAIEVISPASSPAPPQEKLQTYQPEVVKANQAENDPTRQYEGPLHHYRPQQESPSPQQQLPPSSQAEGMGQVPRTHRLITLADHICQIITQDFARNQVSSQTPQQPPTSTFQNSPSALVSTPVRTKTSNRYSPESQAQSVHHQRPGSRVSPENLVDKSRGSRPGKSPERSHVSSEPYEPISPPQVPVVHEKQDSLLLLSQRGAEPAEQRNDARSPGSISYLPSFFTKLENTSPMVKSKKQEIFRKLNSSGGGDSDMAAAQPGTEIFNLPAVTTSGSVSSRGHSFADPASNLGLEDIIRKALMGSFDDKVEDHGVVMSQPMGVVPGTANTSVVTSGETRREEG

| Compound | liver exposure ([1]; time point 12 h) | blood/plasma exposure (below LLOQ) ([1]; time point 12 h, number is the LLOQ) | blood/plasma exposure ([1]; time point 4 h) | liver exposure ([1]; time point 4 h) | liver/blood ratio ([1]; time point 4 h) | EC50 [2] [nM] | IC50 [3] [nM] | EC50 [4] [nM] | EC50 [5] [nM] | EC50 [6] [nM] |
| --- | --- | --- | --- | --- | --- | --- | --- | --- | --- | --- |
| Cc1ccc(S(=O)(=O)n2c(-c3cccc(-c4ccc(C(=O)O)cc4Cl)c3)c(-c3ccsc3C#N)c3cc(F)ccc32)cc1 [3/48] | A (<300 nM) | (1.2 ng/mL) | – | – | – | – | – | – | – | – |
| Cc1ccc(S(=O)(=O)n2c(-c3cccc(-c4ccc(C(=O)O)cc4)c3)c(-c3ccsc3C#N)c3cc(F)ccc32)cc1 [5/3] | – | – | C (100 nM to <300 nM) | C (1 μM to ≤3 μM) | C (10 to ≤30) | – | – | – | – | – |
| Cc1ccc(S(=O)(=O)n2c(-c3cccc(-c4ccc(C(=O)O)cc4)c3)c(-c3ccsc3C#N)c3cc(F)ccc32)cc1C [23/2] | – | – | B (300 nM to ≤1 μM) | D (>3 μM) | C (10 to ≤30) | – | – | – | – | – |
| N#Cc1cccc(C#N)c1-c1c(-c2cccc(-c3ccc(C(=O)NCC(=O)O)cc3Cl)c2)n(S(=O)(=O)c2ccc(C(F)F)cc2)c2ccc(F)cc12 [Compound 21/3] | – | – | – | – | – | 7 ± 16 | 15 ± 4 | 8 ± 7 | 15 ± 3 | 11 ± 19 |
| N#Cc1cccc(C#N)c1-c1c(-c2cccc(-c3ccc(C(=O)O)cc3Cl)c2)n(S(=O)(=O)c2ccc(C(F)F)cc2)c2ccc(F)cc12 [pre-6/3] | – | – | – | – | – | 14 ± 5 | 0.7 ± 0.1 | 0.2 ± 0.1 | 17 ± 7 | 0.4 ± 0.2 |
